Experimental data as given in patent US11414429B2, “Compound or pharmaceutically acceptable salt thereof” (RIKEN, priority 2016, dated 2022).

What was measured:
tankyrase 2 (TNKS 2) = biological target: T1, tankyrase 2 (TNKS 2) (Homo sapiens, UniProt Q9H2K2); assay: Tankyrase inhibitory activity test (ELISA, self-polyADP ribosylation), tankyrase 2; type: biochemical; conditions: ELISA, self-polyADP ribosylation; class symbols; read-out: TNKS2 (inhibitory activity against tankyrase 2, IC50 value)
T1 construct: 613-1, 116aa; made in house; host or cells: cell-free protein synthesis system
Summary of the method: (§1)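 IC50 was fitted to residual self-polyADP-ribosylation activity, detected by HRP-streptavidin chemiluminescence. Plate-bound Flag fusions (TNKS1 1,024-1,327aa SAM+PARP; TNKS2 613-1,116aa ANK5+SAM+PARP, cell-free synthesized) saw compound for 10 min at room temperature in 50 mM Tris-HCl pH 8.0, 4 mM MgCl2, 0.2 mM DTT. Reaction with 225 μM NAD/25 μM 6-biotin-17-NAD solution ran 45 min at 30 °C.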

tankyrase 1 (TNKS 1) = biological target: T2, tankyrase 1 (TNKS 1) (Homo sapiens, UniProt O95271); assay: Tankyrase inhibitory activity test (ELISA, self-polyADP ribosylation), tankyrase 1; type: biochemical; conditions: ELISA, self-polyADP ribosylation; class symbols; read-out: TNKS1 (inhibitory activity against tankyrase 1, IC50 value)
T2 construct: 1,024-1,327aa; made in house; host or cells: cell-free protein synthesis system
Summary of the method: as §1

[1] = system: human colorectal cancer cell line, COLO-320DM; assay: Cell proliferation inhibitory activity test (Celltiter-Glo Luminescent Cell Viability Assay); type: cell-based; conditions: COLO-320DM cells, 96 hours, class symbols, read-out: COLO-320 DM (cell proliferation inhibitory activity, GI50 value)
Summary of the method: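 GI50 is taken as the concentration halving cell growth versus 1% DMSO control, measured by ATP luminescence. Compound exposure lasted 96 h at 37° C. under 5% CO2, after overnight seeding in RPMI-1640 with 10% FBS and 2 mM glutamine.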

T1 sequence (Q9H2K2 613-1166): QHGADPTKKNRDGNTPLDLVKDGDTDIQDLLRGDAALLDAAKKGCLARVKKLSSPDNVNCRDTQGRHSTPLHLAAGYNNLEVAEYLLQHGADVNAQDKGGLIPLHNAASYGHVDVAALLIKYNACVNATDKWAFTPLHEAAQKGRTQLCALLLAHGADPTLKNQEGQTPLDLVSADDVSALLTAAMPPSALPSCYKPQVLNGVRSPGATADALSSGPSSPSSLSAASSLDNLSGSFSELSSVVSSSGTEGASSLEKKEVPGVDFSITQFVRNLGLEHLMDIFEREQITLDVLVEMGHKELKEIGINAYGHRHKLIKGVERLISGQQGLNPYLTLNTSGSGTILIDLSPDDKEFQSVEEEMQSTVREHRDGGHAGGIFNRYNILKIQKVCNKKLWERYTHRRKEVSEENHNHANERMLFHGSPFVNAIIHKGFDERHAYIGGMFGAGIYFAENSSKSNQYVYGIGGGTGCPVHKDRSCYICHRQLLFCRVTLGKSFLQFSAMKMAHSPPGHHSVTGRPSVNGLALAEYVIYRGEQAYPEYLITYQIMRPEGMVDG
T2 sequence (O95271 1024-1327): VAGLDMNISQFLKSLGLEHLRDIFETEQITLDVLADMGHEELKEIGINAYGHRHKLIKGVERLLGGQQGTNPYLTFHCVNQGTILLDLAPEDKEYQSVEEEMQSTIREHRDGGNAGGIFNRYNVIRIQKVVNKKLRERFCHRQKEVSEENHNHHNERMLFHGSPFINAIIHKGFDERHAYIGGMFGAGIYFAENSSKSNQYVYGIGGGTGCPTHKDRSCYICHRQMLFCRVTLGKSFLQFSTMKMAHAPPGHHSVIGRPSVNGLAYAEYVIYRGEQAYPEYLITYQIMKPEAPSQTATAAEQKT

SMILES: CN1CCCc2c1nc(N1CCC3(CC1)OC(=O)c1cc(-c4cnn(C)c4)cc(F)c13)[nH]c2=O [Example 450, 4-fluoro-1′-(4-hy-droxy-8-methyl-6,7-dihydro-5H-py-rido[2,3-d]pyrimidin-2-yl)-6-(1-meth-ylpyrazol-4-yl)spiro [2-benzofuran-3,4′-piperidine]-1-one]
- IC50 (tankyrase 2 (TNKS 2)): < 20 nM
- IC50 (tankyrase 1 (TNKS 1)): < 20 nM
- GI50 [1]: < 100 nM

SMILES: O=C1N(CC(F)(F)F)c2cccc(F)c2C12CCN(c1nc3c(c(=O)[nH]1)CCCN3)CC2 [Example 451, 4-fluoro-1′-(4-hy-droxy-5,6,7,8-tetra-hydropyrido[2,3-d]pyrimidin-2-yl)-1-(2,2,2-trifluoro-ethyl)spiro[indole-3,4′-piperidine]-2-one]
- IC50 (tankyrase 2 (TNKS 2)): < 20 nM
- IC50 (tankyrase 1 (TNKS 1)): < 20 nM
- GI50 [1]: 100 to 600 nM

SMILES: CC(C)(O)CN1C(=O)C2(CCN(c3nc4c(c(=O)[nH]3)CCCN4)CC2)c2c(F)cccc21 [Example 452, 4-fluoro-1-(2-hy-droxy-2-methyl-propyl)-1′-(4-hydroxy-5,6,7,8-tetra-hydropyrido[2,3-d]pyrimidin-2-yl)spiro [indole-3,4′-piper-idine]-2-one]
- IC50 (tankyrase 2 (TNKS 2)): < 20 nM
- IC50 (tankyrase 1 (TNKS 1)): 20 to 200 nM
- GI50 [1]: 100 to 600 nM

SMILES: CNS(=O)(=O)COc1cc(F)c2c(c1)N(C)C(=O)C21CCN(c2nc3c(c(=O)[nH]2)CCCN3C)CC1 [Example 453, 1-{[4-fluoro-1-meth-yl-1′-(8-methyl-4-oxo-3,4,5,6,7,8-hexahydropyrido [2,3-d]pyrimidin-2-yl)-2-oxospiro [indole-3,4′-piperi-dine]-6-yl]oxy}-N-methylmethane sulfonamide]
- IC50 (tankyrase 2 (TNKS 2)): < 20 nM
- IC50 (tankyrase 1 (TNKS 1)): < 20 nM
- GI50 [1]: 100 to 600 nM

SMILES: CN1CCCc2c1nc(N1CCC3(CC1)C(=O)N(C)c1cc(OCS(N)(=O)=O)cc(F)c13)[nH]c2=O [Example 454, 1-{[4-fluoro-1-meth-yl-1′-(8-methyl-4-oxo-3,4,5,6,7,8-hexahydropyrido [2,3-d]pyrimidin-2-yl)-2-oxospiro[indole-3,4′-piperidine]-6-yl]oxy}meth-anesulfonamide]
- IC50 (tankyrase 2 (TNKS 2)): < 20 nM
- IC50 (tankyrase 1 (TNKS 1)): < 20 nM
- GI50 [1]: 100 to 600 nM

SMILES: CN1CCCc2c1nc(N1CCC3(CC1)C(=O)N(C)c1cc(N4CCS(=O)(=O)CC4)cc(F)c13)[nH]c2=O [Example 455, 6-(1,1-dioxdothio-morpholino)-4-fluoro-1-methyl-1′-(8-methyl-4-oxo-3,4,5,6,7,8-hexa-hydropyrido[2,3-d]pyrimidin-2-yl)spiro [indole-3,4′-piperi-dine]-2-one]
- IC50 (tankyrase 2 (TNKS 2)): < 20 nM
- IC50 (tankyrase 1 (TNKS 1)): < 20 nM
- GI50 [1]: 100 to 600 nM

SMILES: CC(=O)NS(=O)(=O)COc1cc(F)c2c(c1)N(C)C(=O)C21CCN(c2nc3c(c(=O)[nH]2)CCCN3C)CC1 [Example 456, N-[[4-fluoro-1-meth-yl-1′-(8-methyl-4-oxo-3,4,5,6,7,8-hexahydropyrido [2,3-d]pyrimidin-2-yl)-2-oxospiro [indole-3,4′-piperi-dine]-6-yl]oxymeth-ylsulfonyl]aceta-mide]
- IC50 (tankyrase 2 (TNKS 2)): < 20 nM
- IC50 (tankyrase 1 (TNKS 1)): < 20 nM
- GI50 [1]: 100 to 600 nM

SMILES: CN1CCCc2c1nc(N1CCC3(CC1)C(=O)N(C)c1cc(N4CCNCC4)cc(F)c13)[nH]c2=O [Example 457, 4-fluoro-1-methyl-1′-(8-methyl-4-oxo-3,4,5,6,7,8-hexahydropyrido [2,3-d]pyrimidin-2-yl)-6-piperazin-1-yl-spiro[indole-3,4′-piperidine]-2(1H)-one]
- IC50 (tankyrase 2 (TNKS 2)): 20 to 200 nM
- IC50 (tankyrase 1 (TNKS 1)): 20 to 200 nM
- GI50 [1]: 600 to 1000 nM

SMILES: CN1CCCc2c1nc(N1CCC3(CC1)C(=O)N(C)c1cc(N4CCN(S(=O)(=O)N(C)C)CC4)cc(F)c13)[nH]c2=O [Example 458, 4-[4-fluoro-1-meth-yl-1′-(8-methyl-4-oxo-3,4,5,6,7,8-hexahydropyrido [2,3-d]pyrimidin-2-yl)-2-oxospiro [indole-3,4′-piperi-dine]-6-yl]-N,N-di-methylpiperazine-1-sulfonamide]
- IC50 (tankyrase 2 (TNKS 2)): < 20 nM
- IC50 (tankyrase 1 (TNKS 1)): 20 to 200 nM
- GI50 [1]: 100 to 600 nM

SMILES: CN1CCCc2c1nc(N1CCC3(CC1)C(=O)N(C)c1cc(N4CC(=O)N(Cc5ccccc5)C(=O)C4)cc(F)c13)[nH]c2=O [Example 459, 1-benzyl-4-[4-fluoro-1-methyl-1′-(8-methyl-4-oxo-3,4,5,6,7,8-hexa-hydropyrido[2,3-d]pyrimidin-2-yl)-2-oxospiro[indole-3,4′-piperidine]-6-yl]piperazine-2,6-dione]
- IC50 (tankyrase 2 (TNKS 2)): 20 to 200 nM
- IC50 (tankyrase 1 (TNKS 1)): 20 to 200 nM
- GI50 [1]: 100 to 600 nM

SMILES: CN1CCCc2c1nc(N1CCC3(CC1)C(=O)N(C)c1cc(N4CCN(C(=O)CO)CC4)cc(F)c13)[nH]c2=O [Example 460, 4-fluoro-6-[4-(2-hydroxyacetyl)piperazin-1-yl]-1-meth-yl-1′-(8-methyl-4-oxo-3,4,5,6,7,8-hexahydropyrido [2,3-d]pyrimidin-2-yl)spiro[indole-3,4′-piperidine]-2-one]
- IC50 (tankyrase 2 (TNKS 2)): < 20 nM
- IC50 (tankyrase 1 (TNKS 1)): < 20 nM
- GI50 [1]: 100 to 600 nM

SMILES: CN1CCCc2c1nc(N1CCC3(CC1)C(=O)N(C)c1cc(N4CCN(S(C)(=O)=O)CC4)cc(F)c13)[nH]c2=O [Example 461, 4-fluoro-1-methyl-1′-(8-methyl-4-oxo-3,4,5,6,7,8-hexahydropyrido[2,3-d]pyrimidin-2-yl)-6-(4-methylsulfonylpiperazin-1-yl)spiro[indole-3,4′-piperidine]-2(1H)-one]
- IC50 (tankyrase 2 (TNKS 2)): < 20 nM
- IC50 (tankyrase 1 (TNKS 1)): < 20 nM
- GI50 [1]: < 100 nM

SMILES: COC(=O)N1CCN(c2cc(F)c3c(c2)N(C)C(=O)C32CCN(c3nc4c(c(=O)[nH]3)CCCN4C)CC2)CC1 [Example 462, methyl 4-[4-fluoro-1-methyl-1′-(8-methyl-4-oxo-3,4,5,6,7,8-hexahydropyrido[2,3-d]pyrimidin-2-yl)-2-oxospiro[indole-3,4′-piperidine]-6-yl]piperazine-1-carboxylate]
- IC50 (tankyrase 2 (TNKS 2)): < 20 nM
- IC50 (tankyrase 1 (TNKS 1)): 20 to 200 nM
- GI50 [1]: < 100 nM

SMILES: C[C@@H]1CN(c2cc(F)c3c(c2)N(C)C(=O)C32CCN(c3nc4c(c(=O)[nH]3)CCCN4C)CC2)C[C@H](C)O1 [Example 463, 6-[cis-2,6-dimethylmorpholin-4-yl]-4-fluoro-1′-(8-methyl-4-oxo-3,4,5,6,7,8-hexahydropyrido[2,3-d]pyrimidin-2-yl)-1-methyl-spiro[indole-3,4′-piperidine]-2(1H)-one]
- IC50 (tankyrase 2 (TNKS 2)): < 20 nM
- IC50 (tankyrase 1 (TNKS 1)): < 20 nM
- GI50 [1]: < 100 nM

SMILES: CN1CCCc2c1nc(N1CCC3(CC1)C(=O)N(C)c1cc(N4CCC(S(C)(=O)=O)CC4)cc(F)c13)[nH]c2=O [Example 464, 4-fluoro-1-methyl-1′-(8-methyl-4-oxo-3,4,5,6,7,8-hexahydropyrido[2,3-d]pyrimidin-2-yl)l-6-(4-methylsulfonylpiperidin-1-yl)spiro[indole-3,4′-piperidine]-2(1H)-one]
- IC50 (tankyrase 2 (TNKS 2)): < 20 nM
- IC50 (tankyrase 1 (TNKS 1)): < 20 nM
- GI50 [1]: 100 to 600 nM

SMILES: COC1CCN(c2cc(F)c3c(c2)N(C)C(=O)C32CCN(c3nc4c(c(=O)[nH]3)CCCN4C)CC2)CC1 [Example 465, 4-fluoro-6-(4-methoxypiperidin-1-yl)-1-methyl-1′-(8-methyl-4-oxo-3,4,5,6,7,8-hexahydropyrido[2,3-d]pyrimidin-2-yl)spiro[indole-3,4′-piperidine]-2(1H)-one]
- IC50 (tankyrase 2 (TNKS 2)): < 20 nM
- IC50 (tankyrase 1 (TNKS 1)): 20 to 200 nM
- GI50 [1]: < 100 nM
